According to ChEMBL document CHEMBL1136299, “Adenosine-anchored triphosphate subsite probing: distinguishing between HER-2 and HER-4 tyrosine protein kinases” (Bioorg Med Chem Lett, 2003):
Active and inactive are the calls of the source. No cut-off for these calls is given here.

Experiments:
[1] = target: Receptor tyrosine-protein kinase erbB-2 (Homo sapiens) (UniProt P04626); assay: Ratio of HER-2 inhibition by diastereomers
[2] = target: Receptor tyrosine-protein kinase erbB-4 (Homo sapiens) (UniProt Q15303); assay: Ratio of HER-4 inhibition by diastereomers
Chain of Receptor tyrosine-protein kinase erbB-4 (Homo sapiens) (Q15303 whole entry): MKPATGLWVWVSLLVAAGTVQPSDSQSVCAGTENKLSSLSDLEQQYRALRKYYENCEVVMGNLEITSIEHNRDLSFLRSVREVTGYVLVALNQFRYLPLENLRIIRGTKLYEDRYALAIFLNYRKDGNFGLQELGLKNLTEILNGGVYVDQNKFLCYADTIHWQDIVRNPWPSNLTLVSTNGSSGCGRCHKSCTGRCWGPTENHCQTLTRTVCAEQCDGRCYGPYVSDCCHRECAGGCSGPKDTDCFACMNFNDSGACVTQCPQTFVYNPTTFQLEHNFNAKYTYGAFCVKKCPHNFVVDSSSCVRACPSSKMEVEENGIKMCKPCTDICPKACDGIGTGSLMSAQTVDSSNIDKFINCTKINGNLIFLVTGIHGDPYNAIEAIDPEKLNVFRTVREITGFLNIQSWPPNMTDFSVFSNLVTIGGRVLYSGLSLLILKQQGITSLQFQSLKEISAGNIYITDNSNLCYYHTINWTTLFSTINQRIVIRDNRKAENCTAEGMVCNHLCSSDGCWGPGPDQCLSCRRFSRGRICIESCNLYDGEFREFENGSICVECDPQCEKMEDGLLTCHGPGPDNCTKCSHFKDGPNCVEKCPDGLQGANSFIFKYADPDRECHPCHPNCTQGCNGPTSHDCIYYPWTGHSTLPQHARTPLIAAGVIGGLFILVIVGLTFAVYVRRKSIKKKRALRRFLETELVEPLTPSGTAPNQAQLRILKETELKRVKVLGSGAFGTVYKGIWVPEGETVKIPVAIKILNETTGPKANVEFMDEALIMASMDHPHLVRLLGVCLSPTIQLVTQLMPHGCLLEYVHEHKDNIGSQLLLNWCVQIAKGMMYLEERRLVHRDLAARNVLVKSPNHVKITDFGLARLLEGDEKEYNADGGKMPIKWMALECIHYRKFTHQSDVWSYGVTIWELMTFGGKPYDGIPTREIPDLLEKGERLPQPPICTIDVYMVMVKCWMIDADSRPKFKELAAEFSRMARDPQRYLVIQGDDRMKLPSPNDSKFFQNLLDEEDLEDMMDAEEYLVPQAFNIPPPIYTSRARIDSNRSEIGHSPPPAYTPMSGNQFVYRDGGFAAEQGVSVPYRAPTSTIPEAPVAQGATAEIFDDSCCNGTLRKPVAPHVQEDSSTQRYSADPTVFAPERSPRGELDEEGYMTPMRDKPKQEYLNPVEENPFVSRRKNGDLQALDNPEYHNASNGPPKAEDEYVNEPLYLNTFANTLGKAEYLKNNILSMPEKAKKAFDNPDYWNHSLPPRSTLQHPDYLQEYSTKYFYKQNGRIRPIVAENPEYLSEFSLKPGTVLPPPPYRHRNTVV

[3] = target: Receptor tyrosine-protein kinase erbB-4 (Homo sapiens) (UniProt Q15303); assay: Ratio of HER-4 inhibition by diastereomers (inactive)

Chain of Receptor tyrosine-protein kinase erbB-2 (Homo sapiens) (P04626 whole entry): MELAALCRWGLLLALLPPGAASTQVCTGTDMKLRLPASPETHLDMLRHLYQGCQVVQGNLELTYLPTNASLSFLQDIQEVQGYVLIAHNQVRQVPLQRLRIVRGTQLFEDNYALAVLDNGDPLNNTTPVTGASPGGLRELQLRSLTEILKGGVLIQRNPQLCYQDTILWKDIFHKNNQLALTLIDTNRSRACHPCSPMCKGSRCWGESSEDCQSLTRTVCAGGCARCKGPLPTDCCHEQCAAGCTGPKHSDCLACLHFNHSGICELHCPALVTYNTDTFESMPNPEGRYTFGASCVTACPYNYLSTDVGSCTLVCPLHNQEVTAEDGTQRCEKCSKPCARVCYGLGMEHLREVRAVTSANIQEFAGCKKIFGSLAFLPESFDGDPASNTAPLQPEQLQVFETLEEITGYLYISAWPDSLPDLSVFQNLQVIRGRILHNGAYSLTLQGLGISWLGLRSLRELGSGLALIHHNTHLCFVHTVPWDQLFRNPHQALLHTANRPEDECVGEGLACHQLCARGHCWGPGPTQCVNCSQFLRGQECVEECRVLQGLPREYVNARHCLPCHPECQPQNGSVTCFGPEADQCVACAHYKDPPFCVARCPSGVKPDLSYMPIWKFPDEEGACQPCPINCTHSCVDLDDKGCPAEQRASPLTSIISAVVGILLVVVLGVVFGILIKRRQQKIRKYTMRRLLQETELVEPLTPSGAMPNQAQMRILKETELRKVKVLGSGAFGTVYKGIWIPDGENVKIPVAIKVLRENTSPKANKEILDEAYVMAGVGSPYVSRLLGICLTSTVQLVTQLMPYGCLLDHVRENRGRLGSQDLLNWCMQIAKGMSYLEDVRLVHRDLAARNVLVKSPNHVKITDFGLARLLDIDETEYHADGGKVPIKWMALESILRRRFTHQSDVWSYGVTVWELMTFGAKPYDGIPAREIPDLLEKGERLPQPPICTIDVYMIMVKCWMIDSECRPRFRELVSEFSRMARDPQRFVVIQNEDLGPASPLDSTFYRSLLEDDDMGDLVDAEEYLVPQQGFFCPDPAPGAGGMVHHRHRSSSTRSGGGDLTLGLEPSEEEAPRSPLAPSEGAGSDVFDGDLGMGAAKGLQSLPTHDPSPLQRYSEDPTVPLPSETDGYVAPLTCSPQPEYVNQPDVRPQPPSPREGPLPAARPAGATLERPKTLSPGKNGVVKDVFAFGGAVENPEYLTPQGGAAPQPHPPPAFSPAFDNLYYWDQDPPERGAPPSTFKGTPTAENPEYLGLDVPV

Row | SMILES | Selectivity [1] | Selectivity [2] | Selectivity [3]
1 | CCOC1CC2(C[C@H]3O[C@@H](n4cnc5c(N)ncnc54)[C@H](O)[C@@H]3O)OC1(C(=O)OC)C(=O)N2C (some centres not stated) | 34.4 | 1.6 | –
2 | CCOC1CC2(C)OC1(C(=O)OC)C(=O)N2C[C@H]1O[C@@H](n2cnc3c(NC(=O)OCc4ccccc4)ncnc32)[C@H](O)[C@@H]1O.CCOC1C[C@@]2(C)OC1(C(=O)OC)C(=O)N2C[C@H]1O[C@@H](n2cnc3c(NC(=O)OCc4ccccc4)ncnc32)[C@H](O)[C@@H]1O (some centres not stated) | 1.7 | – | inactive
3 | CCOC1CC2(C)OC1(C(=O)NC[C@H]1O[C@@H](n3cnc4c(N)ncnc43)[C@H](O)[C@@H]1O)C(=O)N2C (some centres not stated) | 9.1 | – | inactive
4 | CCOC1CC2OC1(C(=O)OC)C(=O)N2C[C@H]1O[C@@H](n2cnc3c(N)ncnc32)[C@H](O)[C@@H]1O.CCOC1C[C@@]2(C)OC1(C(=O)OC)C(=O)N2C[C@H]1O[C@@H](n2cnc3c(N)ncnc32)[C@H](O)[C@@H]1O (some centres not stated) | 4.8 | 1.4 | –
5 | CCOC1CC2(C[C@H]3O[C@@H](n4cnc5c(NC(=O)OCc6ccccc6)ncnc54)[C@H](O)[C@@H]3O)OC1(C(=O)OC)C(=O)N2C.CCOC1C[C@@]2(C[C@H]3O[C@@H](n4cnc5c(NC(=O)OCc6ccccc6)ncnc54)[C@H](O)[C@@H]3O)OC1(C(=O)OC)C(=O)N2C (some centres not stated) | 3.1 | – | inactive
6 | CN1C(=O)C2(C(N)=O)O[C@@]1(C)CC2OC(=O)NC[C@H]1O[C@@H](n2cnc3c(N)ncnc32)[C@H](O)[C@@H]1O.CN1CC2(C(N)=O)O[C@]1(C)C(=O)C2OC(=O)NC[C@H]1O[C@@H](n2cnc3c(N)ncnc32)[C@H](O)[C@@H]1O (some centres not stated) | 54.7 | 1.2 | –
